Reference: US7501429B2, “Pyrimidine compounds as anti-ictogenic and/or anti-epileptogenic agents” (Queen's University at Kingston, priority 2001, dated 2009)

Each compound was assayed on pilocarpine induced-seizures (assay: Pilocarpine induced-seizure (PIS) model). Conditions: uracils in the Pilocarpine model; scale maximum = 4.
Format: in vivo
Method: Pilocarpine Induced-seizure (PIS) Model
All test compounds are normally dissolved in a mixture of saline (NaCl 0.9% by mass) and 10% DMSO. However, in case of solubility problems, the concentration of DMSO may be increased to a maximum of 50%. This biological test is performed following the procedure disclosed in PCT publication WO 98/40055 (Queen's University at Kingston).
`O=c1[nH]c(=O)n(Cc2ccccc2)cc1I` [Compound P32, 1-benzyl-5-iodo-1H-pyrimidine-2,4-dione] was tested, and the “Relative Activity (Maximum = 4)” value was “Active +1”.
In the case of `O=c1[nH]cc(Br)c(=O)[nH]1` [Compound P5, 5-bromo-1H-pyrimidine-2,4-dione], the “Relative Activity (Maximum = 4)” value is reported as “Active - +1”.
For `Cc1[nH]c(=O)[nH]c(=O)c1Br` [Compound P8, 5-bromo-6-methyl-1H-pyrimidine-2,4-dione], the “Relative Activity (Maximum = 4)” value was “Active - +2”.
For `O=c1ccn(Cc2ccccc2)c(=O)[nH]1` [Compound P26, 1-benzyl-1H-pyrimidine-2,4-dione], the “Relative Activity (Maximum = 4)” value was “Active - +2”.
`Cc1cn(C2CC(O)C(CO)O2)c(=O)[nH]c1=O` (stereo not drawn) [Compound P19, 1-(4-hydroxy-5-hydroxymethyl-tetrahydro-furan-2-yl)-5-methyl-1H-pyrimidine-2,4-dione] was tested, and the “Relative Activity (Maximum = 4)” value was “Minimally Active”.
`O=c1c(Br)cn(CC2CCCCC2)c(=O)n1CC1CCCCC1` [Compound P24, 5-bromo-1,3-bis-cyclohexylmethyl-1H-pyrimidine-2,4-dione] was tested, and the “Relative Activity (Maximum = 4)” value was “Minimally Active”.
With `CCCCc1cc2c[nH]c(=O)nc2o1` [Compound P17, 6-butyl-3H-furo[2,3-d]pyrimidin-2-one] the “Relative Activity (Maximum = 4)” value was “Active - +1”.
With `CC1CC(=O)N(N)C(=O)N1Cc1ccccc1` (stereo not drawn) [Compound P39, 3-amino-1-benzyl-6-methyl-dihydro-pyrimidine-2,4-dione] the “Relative Activity (Maximum = 4)” value was “Active +3”.
For `O=c1[nH]cc(CO)c(=O)[nH]1` [Compound P3, 5-hydroxymethyl-1H-pyrimidine-2,4-dione], the “Relative Activity (Maximum = 4)” value was “Active - +3”.
In the case of `O=c1cc[nH]c(=O)[nH]1` [Compound P1, 1H-pyrimidine-2,4-dione], the “Relative Activity (Maximum = 4)” value is reported as “Active - +2”.
`O=c1ccn(CCCO)c(=O)n1CCCO` [Compound P37, 1,3-bis-(3-hydroxy-propyl)-1H-pyrimidine-2,4-dione] was tested, and the “Relative Activity (Maximum = 4)” value was “Active +2”.
In the case of `Cc1c[nH]c(=O)[nH]c1=O` [Compound P2, 5-methyl-1H-pyrimidine-2,4-dione], the “Relative Activity (Maximum = 4)” value is reported as “Active - +2”.
In the case of `CCCCC#Cc1c[nH]c(=O)[nH]c1=O` [Compound P18, 5-hex-1-ynyl-1H-pyrimidine-2,4-dione], the “Relative Activity (Maximum = 4)” value is reported as “Active - +1”.
For `CSCc1c[nH]c(=O)[nH]c1=O` [Compound P31, 5-methylsulfanylmethyl-1H-pyrimidine-2,4-dione], the “Relative Activity (Maximum = 4)” value was “Minimally Active”.
`CC(C)n1cc(Br)c(=O)[nH]c1=O` [Compound P21, 5-bromo-1-isopropyl-1H-pyrimidine-2,4-dione] was tested, and the “Relative Activity (Maximum = 4)” value was “Active - +1”.
`Cn1ccc(=O)[nH]c1=O` [Compound P34, 1-methyl-1H-pyrimidine-2,4-dione] was tested, and the “Relative Activity (Maximum = 4)” value was “Minimally Active”.
For `Cc1cc(=O)[nH]c(=O)[nH]1` [Compound P7, 6-methyl-1H-pyrimidine-2,4-dione], the “Relative Activity (Maximum = 4)” value was “Active - +3”.
For `O=C(O)c1c[nH]c(=O)[nH]c1=O` [Compound P12, 2,4-dioxo-1,2,3,4-tetrahydro-pyrimidine-5-carboxylic acid], the “Relative Activity (Maximum = 4)” value was “Active - +2”.
`O=c1c(Cc2cn(Cc3ccccc3)c(=O)n(Cc3ccccc3)c2=O)cn(Cc2ccccc2)c(=O)n1Cc1ccccc1` [Compound P43] was tested, and the “Relative Activity (Maximum = 4)” value was “Active +3”.
With `O=c1[nH]c(=O)n(CC2CCCCC2)cc1Br` [Compound P23, 5-bromo-1-cyclohexylmethyl-1H-pyrimidine-2,4-dione] the “Relative Activity (Maximum = 4)” value was “Minimally Active”.
For `Cc1[nH]c(=O)[nH]c(=O)c1C` [Compound P14, 5,6-dimethyl-1H-pyrimidine-2,4-dione], the “Relative Activity (Maximum = 4)” value was “Active - +2”.
`CC(C)n1ccc(=O)n(C(C)C)c1=O` [Compound P36, 1,3-diisopropyl-1H-pyrimidine-2,4-dione] was tested, and the “Relative Activity (Maximum = 4)” value was “Active +2”.
`Cn1cc([N+](=O)[O-])c(=O)n(C)c1=O` [Compound P13, 1,3-dimethyl-5-nitro-1H-pyrimidine-2,4-dione] was tested, and the “Relative Activity (Maximum = 4)” value was “Minimally Active”.
In the case of `Cc1[nH]c(=O)[nH]c(=O)c1[N+](=O)[O-]` [Compound P9, 6-methyl-5-nitro-1H-pyrimidine-2,4-dione], the “Relative Activity (Maximum = 4)” value is reported as “Active - +2”.
`Cn1ccc(=O)n(C)c1=O` [Compound P35, 1,3-dimethyl-1H-pyrimidine-2,4-dione] was tested, and the “Relative Activity (Maximum = 4)” value was “Active +3”.
`Cc1cc(=O)n(Cc2ccc([N+](=O)[O-])cc2)c(=O)n1Cc1ccc([N+](=O)[O-])cc1` [Compound P33, 6-methyl-1,3-bis-(4-nitro-benzyl)-1H-pyrimidine-2,4-dione] was tested, and the “Relative Activity (Maximum = 4)” value was “Active +2”.
With `Nc1c(C(=O)O)[nH]c(=O)[nH]c1=O` [Compound P10, 5-amino-2,6-dioxo-1,2,3,6-tetrahydro-pyrimidine-4-carboxylic acid] the “Relative Activity (Maximum = 4)” value was “Minimally Active”.
`NC(=O)c1cnn(-c2cccc(N)c2)c1` [Compound P42, 1-(3-amino-phenyl)-1H-pyrazole-4-carboxylic acid amide] was tested, and the “Relative Activity (Maximum = 4)” value was “Active +2”.
For `Cc1cc(=O)[nH]c(=O)n1Cc1ccccc1` [Compound P27, 1-benzyl-6-methyl-1H-pyrimidine-2,4-dione], the “Relative Activity (Maximum = 4)” value was “Active - +2”.
`O=c1[nH]c(=O)n(Cc2ccccc2)cc1Br` [Compound P22, 1-benzyl-5-bromo-1H-pyrimidine-2,4-dione] was tested, and the “Relative Activity (Maximum = 4)” value was “Active - +1”.
With `O=c1[nH]cc(O)c(=O)[nH]1` [Compound P4, 5-hydroxy-1H-pyrimidine-2,4-dione] the “Relative Activity (Maximum = 4)” value was “Active - +2”.
With `O=c1[nH]cc(I)c(=O)[nH]1` [Compound P6, 5-iodo-1H-pyrimidine-2,4-dione] the “Relative Activity (Maximum = 4)” value was “Active - +1”.
For `NN1C(=O)CCN(Cc2ccccc2)C1=O` [Compound P38, 3-amino-1-benzyl-dihydro-pyrimidine-2,4-dione], the “Relative Activity (Maximum = 4)” value was “Active +2”.
For `O=c1c(Br)cn(Cc2ccc([N+](=O)[O-])cc2)c(=O)n1Cc1ccc([N+](=O)[O-])cc1` [Compound P25, 5-bromo-1,3-bis-(4-nitro-benzyl)-1H-pyrimidine-2,4-dione], the “Relative Activity (Maximum = 4)” value was “Active - +2”.
In the case of `CCC(C)n1cc(Br)c(=O)[nH]c1=O` (stereo not drawn) [Compound P20, 5-bromo-1-sec-butyl-1H-pyrimidine-2,4-dione], the “Relative Activity (Maximum = 4)” value is reported as “Active - +1”.
`O=C(O)c1cc(=O)[nH]c(=O)[nH]1` [Compound P11, 2,6-dioxo-1,2,3,6-tetrahydro-pyrimidine-4-carboxylic acid] was tested, and the “Relative Activity (Maximum = 4)” value was “Active - +2”.
